The structures appear in SMILES notation. In brackets after ≈: the same amount, converted by molar mass. Several values for one entry are separate records, joined by “and”; a condition that tells them apart may be missing. Identical values can stand only once. Where only a bound is given, the exact number is not on record here.

Series [1] concerns Vaccinia virus (WR strain). Nature of the series: microbe, parasite or virus in culture. It is filed as cell-based. Particulars: Orthopoxvirus vaccinia, BSC-1, read-out: Plaque Reduction EC50.
Series [2] is described as follows: Solubility in PBS by chemiluminescence of total nitrogen. It is filed as physicochemical.
Series [3] concerns the target vaccinia E9 DNA polymerase with A20 and D4 (processivity complex) (Vaccinia virus, UniProt P04303). Nature of the series: biochemical.
The nature of series [4]: Cytotoxicity by LDH release. It is filed as cell-based. Particulars: African green monkey, BSC-1 cells. (LDH in the medium is a marker of cell lysis.)
Series [5] addresses vaccinia virus D4 (Vaccinia virus, UniProt P04303). It is filed as binding.

With `Cc1ccc2oc(-c3ccc(Cl)cc3)c(O)c(=O)c2c1` [Compound 5], the EC50 – broadly, the concentration giving half of the maximal effect – in series [1] is ≥ 200 µM.

`O=C1c2ccccc2-c2onc3c(NCCO)cc(NC4CCCCC4)c1c23` [Compound 9, 10-(cyclohexylamino)-12-[(2-hydroxyethyl)amino]-15-oxa-14-azatetracyclohexadeca-1(16),2,4,6,9,11,13-heptaen-8-one]: the EC50 in series [1] came to 8.1 µM. The solubility (usually the concentration that dissolves in the medium under given conditions) in series [2] is 1.4 µg/mL and 3.6 µM. Half-maximal inhibition in series [3] (IC50) was put at 34.1 µM. Moreover, in series [4], the CC50 – broadly, the concentration at which the toxic effect on the cells reaches its halfway point – at 20 h stood at 127 µM. In addition, in series [5], the Tm stood at 51.4 ± 9.1 °C and the ΔTm (in general, the shift of the melting midpoint relative to a reference) is 13.1 °C.

For `Oc1ccc(NCc2ccccc2OCc2ccccc2)cc1` [Compound 10, 4-({[2-(benzyloxy)phenyl]methyl}amino)phenol], in series [1], the EC50 stood at 9.8 µM. This compound also displayed a solubility in series [2] of 3.5 µM (≈ 1.07 µg/mL).

Take `COc1ccc(Nc2nc(Nc3ccc(OC)cc3OC)nc(N3CCOCC3)n2)c(OC)c1` [Compound 12]: the EC50 in series [1] is ≥ 200 µM.

In the case of `Cn1c(=O)n(C)c2cc(NS(=O)(=O)c3ccc(C(C)(C)C)cc3)c(NCc3ccccc3)cc21` [Compound 14, N-[6-(benzylamino)-1,3-dimethyl-2-oxo-2,3-dihydro-1H-1,3-benzodiazol-5-yl]-4-tert-butylbenzene-1-sulfonamide], in series [2], the solubility was 1.9 µM (≈ 0.909 µg/mL).

Turning to `Cc1cc2n(n1)C(c1cc(C(C)(C)C)c(O)cc1O)Nc1ccccc1-2` (stereo not shown) [Compound 15, 4-tert-butyl-6-{2-methyl-5H,6H-pyrazolo[1,5-c]quinazolin-5-yl}benzene-1,3-diol], the EC50 in series [1] amounted to 23.3 µM. The compound also returned a solubility in series [2] of 54.7 µM (≈ 19.1 µg/mL).

For `COc1ccc(C)cc1N(CC(=O)N1CCC(C)CC1)S(=O)(=O)c1ccc(C)cc1` [Compound 26], in series [1], the 50% effective concentration (EC50) was ≥ 200 µM.

For the compound `COc1cc(-c2nc(-c3ccccc3)c(-c3ccc(Br)cc3)[nH]2)cc(OC)c1O` [Compound 27, 4-[5-(4-bromophenyl)-4-phenyl-1H-imidazol-2-yl]-2,6-dimethoxyphenol], the EC50 in series [1] is 22.4 µM. The solubility in series [2] was found to be 3.2 µM (≈ 1.44 µg/mL).
